Laboratory results from patent US9163013B2, “Use of 1H-indazole-3-carboxamide compounds as glycogen synthase kinase 3 beta inhibitors” (AZIENDE CHIMICHE RIUNITE ANGELINI FRANCESCO A.C.R.A.F. …, priority 2012, dated 2015).

Assays:
human GSK-3β [1] = target: T1, human GSK-3β (Homo sapiens (Human), UniProt P49841); assay: Activity on human GSK-3β, substrate phosphorylation measured by LANCE technology; format: biochemical; conditions: LANCE phosphorylation assay; five concentrations 100 μM to 10 nM, duplicate; read-out: IC50
Method: Activity on human GSK-3β was assessed using the following methods (according to Meijer et al., Chem. Biol., 2003-10:1255-1266).
In a first screening assay, compounds were tested in duplicate at a concentration of 10 μM.
Human recombinant enzyme GSK-3β was incubated for 90 minutes at 22° C. in the presence of compounds or vehicle in a reaction buffer containing ATP plus 100 nM unphosphorylated specific substrate peptide (Ulight-[…]-amide). Substrate phosphorylation was measured by LANCE technology (PerkinElmer, Conn., USA).
The results, reported in the following Table 4, are expressed as a percent of inhibition of control specific activity obtained in the presence of the test compounds (as % inhibition at 10 μm).
(§1) In a second assay, the same compounds were assayed at five concentrations ranging from 100 μM to 10 nM with ten-fold dilutions in duplicate. Compounds 1 to 7, 9, 11 and 13 to 26 were tested using the same first assay, compounds 8, 10, 12, and 27 to 31 were tested in another assay based on the binding and displacement of AlexaFluor® 647 labeled, ATP-competitive Kinase inhibitor scaffold using LanthaScreen™ TR-FRET technology Eu Kinase assay packet according to manufacturer's instruction (Life Technologies, Italy).
(§2) The IC50 values (concentration causing a half maximal inhibition of control specific activity), reported in table 4, were determined by non-linear regression analysis of the inhibition curves generated with mean replicate values using Hill equation curve fitting.

CDC2/CDK1 (h) (cycB) = CDC2/CDK1 (h) (cycB) (Homo sapiens (Human), UniProt P06493); assay: Kinase selectivity panel; format: biochemical; conditions: duplicate, read-out: % inhibition of control values, CDC2/CDK1 (h) (cycB)
Method: (§3) (a) Compound 1 was tested against a panel of 60 kinases in order to assess its selectivity. The assays were chosen taking into consideration the diversity of assay families.
(§4) Human recombinant kinases were incubated in the presence of specific peptide substrates plus ATP for different times (10, 15, 30, 60 or 90 minutes) at 22° C. Phosphorylated substrate was detected by LANCE or HTRF technology (CISBIO, MA, USA).
(§5) Compound 1 was tested at 10 μM in duplicate.
(§6) The results are expressed as a percent of inhibition of control specific activity obtained in the presence of the test compound 1 and are reported in the following Table 5.
(§7) (b) Compounds 7, 12, 21 and 24 were tested against the same panel of 60 kinases under the same conditions described above for compound 1.
(§8) The results are expressed as a percent of inhibition of control specific activity obtained in the presence of the test compounds and are reported in the following Table 6.

CDK5/p35 (h) = CDK5/p35 (h) (Homo sapiens (Human), UniProt Q00535); assay: Kinase selectivity panel; format: biochemical; conditions: duplicate, read-out: % inhibition of control values, CDK5/p35 (h)
Method: as §3, §4, §5, §6, §7, §8

ERK1 (h) = ERK1 (h) (Homo sapiens (Human), UniProt P27361); assay: Kinase selectivity panel; format: biochemical; conditions: duplicate, read-out: % inhibition of control values, ERK1 (h)
Method: as §3, §4, §5, §6, §7, §8

ERK2 (h) (P42mapk) = ERK2 (h) (P42mapk) (Homo sapiens (Human), UniProt P28482); assay: Kinase selectivity panel; format: biochemical; conditions: duplicate, read-out: % inhibition of control values, ERK2 (h) (P42mapk)
Method: as §3, §4, §5, §6, §7, §8

GSK3beta (h) = GSK3beta (h) (Homo sapiens (Human), UniProt P49841); assay: Kinase selectivity panel; format: biochemical; conditions: for inhibition at 10 µM: duplicate, read-out: % inhibition of control values, GSK3beta (h); for Selectivity for GSK-3β compared to the other kinases of the panel: panel of 60 kinases, 10 μM
Method: as §3, §4, §5, §6, §7, §8

HGK (h) (MAP4K4) = HGK (h) (MAP4K4) (Homo sapiens (Human), UniProt O95819); assay: Kinase selectivity panel; format: biochemical; conditions: duplicate, read-out: % inhibition of control values, HGK (h) (MAP4K4)
Method: as §3, §4, §5, §6, §7, §8

IRK (h) (InsR) = IRK (h) (InsR) (Homo sapiens (Human), UniProt P06213); assay: Kinase selectivity panel; format: biochemical; conditions: duplicate, read-out: % inhibition of control values, IRK (h) (InsR)
Method: as §3, §4, §5, §6, §7, §8

MEK1/MAP2K1 (h) = MEK1/MAP2K1 (h) (Homo sapiens (Human), UniProt Q02750); assay: Kinase selectivity panel; format: biochemical; conditions: duplicate, read-out: % inhibition of control values, MEK1/MAP2K1 (h)
Method: as §3, §4, §5, §6, §7, §8

NEK1 (h) = NEK1 (h) (Homo sapiens (Human), UniProt Q96PY6); assay: Kinase selectivity panel; format: biochemical; conditions: duplicate, read-out: % inhibition of control values, NEK1 (h)
Method: as §3, §4, §5, §6, §7, §8

Src kinase (h) = Src kinase (h) (Homo sapiens (Human), UniProt P12931); assay: Kinase selectivity panel; format: biochemical; conditions: duplicate, read-out: % inhibition of control values, Src kinase (h)
Method: as §3, §4, §5, §6, §7, §8

TAOK2 (TAO1) (h) = TAOK2 (TAO1) (h) (Homo sapiens (Human), UniProt Q9UL54); assay: Kinase selectivity panel; format: biochemical; conditions: duplicate, read-out: % inhibition of control values, TAOK2 (TAO1) (h)
Method: as §3, §4, §5, §6, §7, §8

TRKA (h) = TRKA (h) (Homo sapiens (Human), UniProt P04629); assay: Kinase selectivity panel; format: biochemical; conditions: duplicate, read-out: % inhibition of control values, TRKA (h)
Method: as §3, §4, §5, §6, §7, §8

smMLCK (h) (MYLK) = smMLCK (h) (MYLK) (Homo sapiens (Human), UniProt Q15746); assay: Kinase selectivity panel; format: biochemical; conditions: duplicate, read-out: % inhibition of control values, smMLCK (h) (MYLK)
Method: as §3, §4, §5, §6, §7, §8

CDK2 (h) (cycA) = CDK2 (h) (cycA) (Homo sapiens (Human), UniProt P24941); assay: Kinase selectivity panel and IC50 determination; format: biochemical; conditions: 10 μM, duplicate; read-out: % inhibition of control values, CDK2 (h) (cycA)
Method: as §3, §4, §5, §6
(§9) Compound 1 was also assayed to determine the IC50 values for three different kinases (PCTAIRE1, DYRK1a, and CDK2) in comparison to Gsk3β. The assay was conducted with the same method described above in test I, second assay.
as §7, §8

DYRK1a (h) = DYRK1a (h) (Homo sapiens (Human), UniProt Q13627); assay: Kinase selectivity panel and IC50 determination; format: biochemical; conditions: 10 μM, duplicate; read-out: % inhibition of control values, DYRK1a (h)
Method: as §3, §4, §5, §6, §9, §7, §8

PCTAIRE1 kinase (h) = PCTAIRE1 kinase (h) (Homo sapiens (Human), UniProt Q00536); assay: Kinase selectivity panel and IC50 determination; format: biochemical; conditions: 10 μM, duplicate; read-out: % inhibition of control values, PCTAIRE1 kinase (h)
Method: as §3, §4, §5, §6, §9, §7, §8

human GSK-3β [2] = target: T1, human GSK-3β; assay: LanthaScreen TR-FRET Eu Kinase binding and displacement assay; conditions: five concentrations 100 μM to 10 nM, duplicate
Method: as §1, §2

GSK3beta (h), sequence (P49841 whole entry): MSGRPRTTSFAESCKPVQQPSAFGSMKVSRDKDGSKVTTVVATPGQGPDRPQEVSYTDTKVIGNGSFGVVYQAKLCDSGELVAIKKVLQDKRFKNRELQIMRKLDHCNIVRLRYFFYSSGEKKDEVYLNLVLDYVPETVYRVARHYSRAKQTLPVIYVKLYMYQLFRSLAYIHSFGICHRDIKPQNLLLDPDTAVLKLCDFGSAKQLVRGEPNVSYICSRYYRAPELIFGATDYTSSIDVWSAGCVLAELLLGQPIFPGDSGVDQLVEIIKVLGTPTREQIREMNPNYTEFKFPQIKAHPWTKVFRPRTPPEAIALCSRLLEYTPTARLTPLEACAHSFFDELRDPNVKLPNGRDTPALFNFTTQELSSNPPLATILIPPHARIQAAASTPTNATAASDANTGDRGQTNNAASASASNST
Src kinase (h), sequence (P12931 whole entry, looked up): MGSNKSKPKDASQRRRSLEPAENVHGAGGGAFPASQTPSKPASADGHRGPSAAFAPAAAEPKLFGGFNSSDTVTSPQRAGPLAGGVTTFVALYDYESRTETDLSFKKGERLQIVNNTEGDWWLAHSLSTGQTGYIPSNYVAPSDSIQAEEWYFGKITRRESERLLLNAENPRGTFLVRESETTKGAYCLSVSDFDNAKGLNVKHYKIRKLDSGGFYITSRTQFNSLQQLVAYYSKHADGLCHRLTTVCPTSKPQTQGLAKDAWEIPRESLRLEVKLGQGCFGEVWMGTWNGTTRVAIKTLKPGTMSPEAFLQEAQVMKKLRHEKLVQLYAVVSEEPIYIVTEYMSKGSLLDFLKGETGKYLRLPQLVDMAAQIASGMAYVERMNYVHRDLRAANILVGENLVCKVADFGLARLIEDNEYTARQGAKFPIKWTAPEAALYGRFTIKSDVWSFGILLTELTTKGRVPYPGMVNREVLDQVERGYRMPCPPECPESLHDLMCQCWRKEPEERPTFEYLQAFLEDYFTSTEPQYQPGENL
CDK5/p35 (h), sequence (Q00535 whole entry): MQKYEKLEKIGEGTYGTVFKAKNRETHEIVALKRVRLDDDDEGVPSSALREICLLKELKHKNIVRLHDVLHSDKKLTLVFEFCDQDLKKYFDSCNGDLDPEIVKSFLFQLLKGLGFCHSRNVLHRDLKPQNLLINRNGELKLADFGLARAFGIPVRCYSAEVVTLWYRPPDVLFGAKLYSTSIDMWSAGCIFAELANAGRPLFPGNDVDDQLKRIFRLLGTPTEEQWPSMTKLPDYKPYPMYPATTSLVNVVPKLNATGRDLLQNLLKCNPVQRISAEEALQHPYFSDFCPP
CDK5/p35 (h), sequence (Q15078 whole entry partner): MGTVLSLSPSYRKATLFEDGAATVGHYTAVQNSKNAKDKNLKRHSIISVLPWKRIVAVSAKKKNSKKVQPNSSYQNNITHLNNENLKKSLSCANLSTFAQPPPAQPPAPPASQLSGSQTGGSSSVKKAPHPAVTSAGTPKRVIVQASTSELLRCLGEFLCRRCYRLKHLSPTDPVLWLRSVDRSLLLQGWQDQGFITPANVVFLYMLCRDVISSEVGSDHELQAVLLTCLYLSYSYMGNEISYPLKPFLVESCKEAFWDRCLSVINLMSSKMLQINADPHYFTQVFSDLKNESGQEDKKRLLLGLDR
TAOK2 (TAO1) (h), sequence (Q9UL54 whole entry): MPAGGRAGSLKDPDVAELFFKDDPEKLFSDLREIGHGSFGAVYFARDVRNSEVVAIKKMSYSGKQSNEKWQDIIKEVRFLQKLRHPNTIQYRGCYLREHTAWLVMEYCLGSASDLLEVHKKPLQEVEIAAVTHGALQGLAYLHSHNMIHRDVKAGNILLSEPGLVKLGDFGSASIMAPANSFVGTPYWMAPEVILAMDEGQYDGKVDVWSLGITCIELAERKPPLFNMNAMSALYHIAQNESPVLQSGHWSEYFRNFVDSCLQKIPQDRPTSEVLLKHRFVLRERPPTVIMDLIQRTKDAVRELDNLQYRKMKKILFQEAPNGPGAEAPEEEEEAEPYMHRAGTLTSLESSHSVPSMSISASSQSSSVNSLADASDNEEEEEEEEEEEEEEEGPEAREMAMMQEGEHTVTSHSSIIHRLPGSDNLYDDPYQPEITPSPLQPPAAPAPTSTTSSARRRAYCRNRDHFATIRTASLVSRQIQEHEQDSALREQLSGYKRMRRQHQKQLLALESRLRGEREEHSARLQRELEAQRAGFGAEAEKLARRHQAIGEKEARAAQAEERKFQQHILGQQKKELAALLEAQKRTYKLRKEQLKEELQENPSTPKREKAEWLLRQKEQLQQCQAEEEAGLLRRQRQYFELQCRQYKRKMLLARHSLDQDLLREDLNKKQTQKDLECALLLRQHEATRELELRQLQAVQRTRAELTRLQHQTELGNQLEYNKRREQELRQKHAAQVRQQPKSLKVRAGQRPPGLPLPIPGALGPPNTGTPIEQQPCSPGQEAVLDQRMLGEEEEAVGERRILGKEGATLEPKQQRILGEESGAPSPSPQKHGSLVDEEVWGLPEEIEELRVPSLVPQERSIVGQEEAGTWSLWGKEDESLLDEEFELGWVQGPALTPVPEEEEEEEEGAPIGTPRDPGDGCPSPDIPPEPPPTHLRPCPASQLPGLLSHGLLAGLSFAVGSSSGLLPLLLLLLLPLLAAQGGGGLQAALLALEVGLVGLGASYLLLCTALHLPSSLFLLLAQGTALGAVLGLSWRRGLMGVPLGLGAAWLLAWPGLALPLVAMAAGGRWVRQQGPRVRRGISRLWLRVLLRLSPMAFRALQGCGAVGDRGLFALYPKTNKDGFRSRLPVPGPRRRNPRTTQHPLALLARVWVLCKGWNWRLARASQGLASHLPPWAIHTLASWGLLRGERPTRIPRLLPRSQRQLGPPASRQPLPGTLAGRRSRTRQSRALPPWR
PCTAIRE1 kinase (h), sequence (Q00536 whole entry): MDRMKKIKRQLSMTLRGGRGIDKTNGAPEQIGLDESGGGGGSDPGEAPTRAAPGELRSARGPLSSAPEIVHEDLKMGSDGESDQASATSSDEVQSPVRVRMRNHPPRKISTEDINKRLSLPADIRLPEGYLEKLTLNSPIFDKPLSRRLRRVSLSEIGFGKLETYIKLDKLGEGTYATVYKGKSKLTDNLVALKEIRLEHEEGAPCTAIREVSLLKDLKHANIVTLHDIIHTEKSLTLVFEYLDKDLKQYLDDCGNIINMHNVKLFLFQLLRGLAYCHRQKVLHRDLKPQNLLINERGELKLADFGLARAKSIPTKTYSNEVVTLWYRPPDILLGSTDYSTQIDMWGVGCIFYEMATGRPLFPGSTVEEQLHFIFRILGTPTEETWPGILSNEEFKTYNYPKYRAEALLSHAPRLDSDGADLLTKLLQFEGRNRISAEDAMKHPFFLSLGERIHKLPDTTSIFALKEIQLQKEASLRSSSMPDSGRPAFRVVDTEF
CDC2/CDK1 (h) (cycB), sequence (P06493 whole entry): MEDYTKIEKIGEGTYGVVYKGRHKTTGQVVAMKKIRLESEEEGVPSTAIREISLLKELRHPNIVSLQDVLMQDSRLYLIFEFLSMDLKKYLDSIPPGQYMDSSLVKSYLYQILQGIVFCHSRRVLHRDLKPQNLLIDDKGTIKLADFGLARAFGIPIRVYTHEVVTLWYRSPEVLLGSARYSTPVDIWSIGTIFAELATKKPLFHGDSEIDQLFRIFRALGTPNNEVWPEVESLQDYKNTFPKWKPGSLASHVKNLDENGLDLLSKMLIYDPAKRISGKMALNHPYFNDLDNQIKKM
CDC2/CDK1 (h) (cycB), sequence (P14635 whole entry partner): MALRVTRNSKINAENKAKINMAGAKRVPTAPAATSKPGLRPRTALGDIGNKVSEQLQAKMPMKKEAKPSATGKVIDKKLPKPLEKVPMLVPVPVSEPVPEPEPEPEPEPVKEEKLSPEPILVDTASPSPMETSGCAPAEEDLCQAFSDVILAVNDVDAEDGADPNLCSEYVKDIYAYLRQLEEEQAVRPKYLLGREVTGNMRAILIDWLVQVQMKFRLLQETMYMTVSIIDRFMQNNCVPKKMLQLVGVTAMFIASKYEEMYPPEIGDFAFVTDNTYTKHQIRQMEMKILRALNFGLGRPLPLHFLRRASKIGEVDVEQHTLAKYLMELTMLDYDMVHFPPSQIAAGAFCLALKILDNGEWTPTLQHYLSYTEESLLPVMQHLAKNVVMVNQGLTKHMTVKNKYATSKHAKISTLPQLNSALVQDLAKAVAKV
ERK1 (h), sequence (P27361 whole entry): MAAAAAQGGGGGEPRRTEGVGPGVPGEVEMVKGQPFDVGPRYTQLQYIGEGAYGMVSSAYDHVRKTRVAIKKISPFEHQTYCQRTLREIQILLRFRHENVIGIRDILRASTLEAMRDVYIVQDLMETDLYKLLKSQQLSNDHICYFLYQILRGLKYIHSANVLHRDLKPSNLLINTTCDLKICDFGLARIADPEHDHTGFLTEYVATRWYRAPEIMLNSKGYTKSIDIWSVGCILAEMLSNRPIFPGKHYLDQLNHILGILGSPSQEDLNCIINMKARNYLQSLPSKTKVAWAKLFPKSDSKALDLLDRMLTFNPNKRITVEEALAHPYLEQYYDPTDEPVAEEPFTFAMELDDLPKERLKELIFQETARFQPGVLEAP
MEK1/MAP2K1 (h), sequence (Q02750 whole entry): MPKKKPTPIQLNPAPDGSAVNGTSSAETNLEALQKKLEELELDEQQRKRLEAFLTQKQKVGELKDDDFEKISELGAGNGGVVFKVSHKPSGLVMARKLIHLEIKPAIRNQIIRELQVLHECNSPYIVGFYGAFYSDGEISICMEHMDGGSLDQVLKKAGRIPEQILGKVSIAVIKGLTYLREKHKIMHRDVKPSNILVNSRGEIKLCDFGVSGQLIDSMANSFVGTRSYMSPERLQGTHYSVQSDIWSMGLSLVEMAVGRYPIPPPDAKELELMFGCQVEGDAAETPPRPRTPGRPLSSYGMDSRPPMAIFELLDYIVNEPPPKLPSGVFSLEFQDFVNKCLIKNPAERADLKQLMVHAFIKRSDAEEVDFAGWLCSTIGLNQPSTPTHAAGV
T1 sequence (P49841 whole entry): as the sequence (P49841 whole entry) above

| SMILES | IC50 (human GSK-3β [1]) | inhibition at 10 µM (CDC2/CDK1 (h) (cycB)) | inhibition at 10 µM (CDK5/p35 (h)) | inhibition at 10 µM (ERK1 (h)) | inhibition at 10 µM (ERK2 (h) (P42mapk)) | inhibition at 10 µM (GSK3beta (h)) | Selectivity for GSK-3β compared to the other kinases of the panel (GSK3beta (h)) | inhibition at 10 µM (HGK (h) (MAP4K4)) | inhibition at 10 µM (IRK (h) (InsR)) | inhibition at 10 µM (MEK1/MAP2K1 (h)) | inhibition at 10 µM (NEK1 (h)) | inhibition at 10 µM (Src kinase (h)) | inhibition at 10 µM (TAOK2 (TAO1) (h)) | inhibition at 10 µM (TRKA (h)) | inhibition at 10 µM (smMLCK (h) (MYLK)) | inhibition at 10 µM (CDK2 (h) (cycA)) | inhibition at 10 µM (DYRK1a (h)) | inhibition at 10 µM (PCTAIRE1 kinase (h)) | IC50 (human GSK-3β [2]) |
| --- | --- | --- | --- | --- | --- | --- | --- | --- | --- | --- | --- | --- | --- | --- | --- | --- | --- | --- | --- |
| COC(=O)c1csc(CN2CCC(CNC(=O)c3n[nH]c4ccc(OC)cc34)CC2)n1 [Compound 7, Methyl 2-{[4-({[(5-methoxy-1H-indazol-3-yl)carbonyl]amino}methyl)piperidin-1-yl]methyl}-1,3-thiazole-4-carboxylate] | 130 nM | 6% | 21% | 31% | 33% | 96% | good selectivity profile | 21% | 0% | 27% | 0% | 9% | 16% | 1% | 26% | 48% | 88% | 2% | – |
| O=C(O)c1coc(CN2CCC(CNC(=O)c3n[nH]c4ccc(-c5cccc(F)c5F)cc34)CC2)n1 [Compound 12, 2-({4-[({[5-(2,3-Difluorophenyl)-1H-indazol-3-yl]carbonyl}amino)methyl]piperidin-1-yl}methyl)-1,3-oxazole-4-carboxylic acid hydrate] | – | 77% | 87% | 85% | 91% | 100% | good affinity to GSK-3β when compared to most of other kinases of the same family | 98% | 0% | 86% | 30% | 15% | 81% | 5% | 36% | 96% | 99% | 42% | 10 nM |
